In BindingDB's records for PubMed 28741798 (Daiichi Sankyo Co., Ltd):

Biological target: Histone-lysine N-methyltransferase KMT5B (Homo sapiens, UniProt Q4FZB7)
Test: Inhibition of human SUV420H1 transcript variant 2 using Nucleosomes and [3H]SAM as substrate incubated for 30 mins to 1 hr by HotSpot kinase assay

Sequence of Histone-lysine N-methyltransferase KMT5B (Q4FZB7 whole entry): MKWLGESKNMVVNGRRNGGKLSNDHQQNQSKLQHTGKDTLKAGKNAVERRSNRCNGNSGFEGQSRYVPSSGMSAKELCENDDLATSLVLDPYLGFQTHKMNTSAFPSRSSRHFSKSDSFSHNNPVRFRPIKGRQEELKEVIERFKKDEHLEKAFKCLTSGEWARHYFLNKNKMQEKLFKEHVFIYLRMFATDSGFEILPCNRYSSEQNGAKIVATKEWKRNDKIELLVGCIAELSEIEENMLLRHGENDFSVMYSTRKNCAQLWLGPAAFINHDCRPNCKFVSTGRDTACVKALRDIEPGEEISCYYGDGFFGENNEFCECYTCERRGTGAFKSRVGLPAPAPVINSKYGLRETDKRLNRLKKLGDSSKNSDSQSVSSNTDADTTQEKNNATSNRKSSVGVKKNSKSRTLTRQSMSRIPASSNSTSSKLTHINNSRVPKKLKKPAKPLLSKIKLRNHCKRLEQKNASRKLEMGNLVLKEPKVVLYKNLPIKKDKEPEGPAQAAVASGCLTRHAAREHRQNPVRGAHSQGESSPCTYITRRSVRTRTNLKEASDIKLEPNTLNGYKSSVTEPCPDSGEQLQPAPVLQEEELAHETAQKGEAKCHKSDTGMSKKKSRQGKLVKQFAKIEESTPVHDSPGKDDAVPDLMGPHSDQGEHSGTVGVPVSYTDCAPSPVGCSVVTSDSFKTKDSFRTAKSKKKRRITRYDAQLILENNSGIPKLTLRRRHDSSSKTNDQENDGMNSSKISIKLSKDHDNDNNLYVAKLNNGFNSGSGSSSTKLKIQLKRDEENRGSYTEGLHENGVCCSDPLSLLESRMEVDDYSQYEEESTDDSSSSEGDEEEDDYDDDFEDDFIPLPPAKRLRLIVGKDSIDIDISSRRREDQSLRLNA

IC50: 1000 nM
SMILES: Cc1cc(C)c(CNC(=O)c2cc(Cl)c3c(c2C)O[C@@](C)([C@H]2CC[C@H](N(C)C)CC2)O3)c(=O)[nH]1 [(2R)-7-chloro-2-[trans-4-(dimethylamino)cyclohexyl]-N-[(4,6-dimethyl-2-oxo-1,2-dihydropyridin-3-yl)methyl]-2,4-dimethyl-1,3-benzodioxole-5-carboxamide (Valemetostat)]
